Results reported in publication PMC2914800 (Biochemistry, 2010).
pKd: −log10 of the molar value.

Key:
[1] = molecular target: T1, HasAp (Pseudomonas aeruginosa, UniProt G3XD33, H32A); test: stopped-flow UV-vis kinetics at […] °C; type: binding
T1 sequence (G3XD33 1-184 H32A): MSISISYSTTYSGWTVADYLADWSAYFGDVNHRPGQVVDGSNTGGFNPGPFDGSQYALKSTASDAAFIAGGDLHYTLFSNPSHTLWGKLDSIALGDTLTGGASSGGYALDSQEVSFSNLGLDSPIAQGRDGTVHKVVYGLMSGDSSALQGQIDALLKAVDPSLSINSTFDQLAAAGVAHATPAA

[2] = molecular target: HasAp (Pseudomonas aeruginosa, UniProt G3XD33); test: stopped-flow UV-vis kinetics at […] °C; type: binding

C=CC1=C(C)C2=Cc3c(C=C)c(C)c4[n]3[Fe]([Cl])[n]3c(c(C)c(CCC(=O)O)c3=CC3=NC(=C4)C(C)=C3CCC(=O)O)=CC1=N2 [hemin]
pKd [1]: 4.21
pKd [2]: 4.46
